Assay results as given in patent US20050019746A1, “Apoptosis-related kinase/GPCRs” (EiRx Therapeutics Limited, priority 2003, published 2005).

Experiments:
[1] = test system: human primary neutrophils; test: Neutrophil apoptosis by sub G1 analysis (DNA fragmentation); format: cell-based; settings: inhibitor 20 μM with GM-CSF 50 units/ml, 18 h, relative to GM-CSF alone
Procedure: Neutrophils are isolated from the blood as described in WO 02/04657 and resuspended at a concentration of 2×10^6/ml. Five hundred microlitres are pipetted into wells of a 24 well plate and incubated in the presence or absence of survival factors.
After this incubation, the neutrophils are carefully resuspended by gentle agitation and the total contents of the well are placed into an eppendorf and centrifuged@2800 rpm for 2 min@RT in a minifuge. The cell pellet is carefully resuspended in 300 μl of ice cold hypotonic fluorochrome solution (50 μg/ml Propidium Iodide, 0.1% Sodium Citrate and 0.1% Triton X-100) and placed in a fridge for 24 h@4° C.
Prepared samples are analysed with a FacsCalibre flow cytometer (Becton Dickinson) using double discrimination to ensure single cell suspension with Log Forward and Side Scatter Parameter acquisition.
(§1) Neutrophils are seeded at 2×10^6/ml in a 24 well plate in full culture medium (1 ml/well). A PI3K inhibitor (Ly294002) is added to the neutrophils to a final concentration of 20 μM prior to the addition of GM-CSF (50 units/ml). Control wells received either no GM-CSF or F GM-CSF (50 units/ml) in the absence of inhibitor. Neutrophils are cultured for 18 h at 37° C. prior to harvest and prepared for sub G1 analysis, as previously described.
as §1, with “An AKT” for “A PI3K”, “([1L-6-Hydroxymethyl-chiro-inositol 2-O-methyl-3-O-octadecylcarbonate] (Calbiochem))” for “(Ly294002)”, “μM and incubated for 2 h” for “μM”, “receive” for “received”, “or” for “or F”

[2] = test system: PDK1 regulatory sites in S6K1 and Akt; settings: Ballif et al; cited from earlier work
[3] = test system: JAK3-positive leukemia cell lines DAUDI, RAMOS, LC1;19, NALM-6, MOLT-3, HL-60; settings: concentration-dependent, not JAK3-negative lines (Sudbeck et al); cited from earlier work
[4] = test system: glioblastoma cell; settings: Narla et al; cited from earlier work
[5] = test system: DU145 cells; test: 10-14 day Clonagenicity Assay (MTT), DU145; format: cell-based, human; settings: independent experiment n = 2, dilution point of maximum toxicity
Excerpt: (§2) The Clonagenicity Assay represents a Cell Viability Screen that allows assessment of a cytotoxic insult at a variety of seed densities of cancer cell lines over an extended period of logarithmic growth, such that the definitive effect of the test substance can be accurately quantified. In this instance, the ‘cytotoxic insult’ to be tested involves the transfection of siRNA Oligomers to knockdown the expression of novel target Kinases and GPCRs as outlined previously. Cell number is quantified 10-14 days post siRNA transfection by MTT conversion as described in detail in Example 6.
(§3) The Clonagenicity Assay is optimised for each cell line examined with respect to seed number. The seed number varies for each cell line and accounts for the differences in cell size, growth rate and sensitivity to transfection-induced toxicity for each cell line pursued. Cells lines given as models for this example include HCT15, MCF7, A549, SKOV3, DU145, U251, PC3, A498 and HeLa. The siRNA oligo to Survivin serves as a positive control for toxicity in this assay and the missense control oligomer acts as a negative control as described in detail in Examples 5 and 6. The c-Raf, BCL2 and PI3K siRNA oligomers serve as additional controls as previously mentioned. The Clonagenicity assay is performed as outlined below.
(§4) Cells are seeded into a 96-well plate as described below and allowed to adhere overnight at 37° C. in a humidified atmosphere containing 5% CO2 in air. Wells are seeded with an appropriate cell number (cell line dependent) in Column 1 of the 96 well plates and this cell suspension is diluted 1 in 2 across the 96 well plates from Column 1 through to 6 (represented on the x-axis in results). Cells are next transfected with siRNA Oligomers, at a concentration of 2 μg/ml, against the genes of interest. Transfections continue for 4 hrs after which the transfection solution is removed and cells are refed with fresh medium and allow to incubate overnight. An additional media change@24 hrs post transfection is made to minimise toxicity of the transfection reagent. Cells are subsequently incubated for a 10-14 Day period post transfection at a 37° C. incubation as described above. Medium is renewed weekly following which MTT quantification is performed as described in Example 5.
(§5) To be considered cytotoxic, the siRNA Oligo against the gene target must induce a decreased viability in a cell line across at least 2 seed densities in the clonagenicity assay, such that a significant difference between the target gene and MS is observed i.e. no crossing of the Standard Error bars is detected. The average percentage viability, relative to missense, is recorded for the dilution point at which Maximum Toxicity is induced is recorded in Table 13.
(§6) Table 13 Clonagenicity Assay—This table gives the average percentage survival of the indicated cell lines relative to the missense in a clonagenicity assay, over 3 independent experiments. As an internal reference, the known survival gene ‘Survivin’, BCL2, c-Raf and PI3KR1 was also targeted by siRNA. When no Cytotoxic response is detected ‘-’ is recorded.

[6] = test system: HCT15 cells; test: Anchorage Independence/Soft Agar Assay, HCT15; format: cell-based, human; parameters: PERCENTAGE SURVIVAL RELATIVE TO MS, HCT15, n = 2: tested at 2 µg; PERCENTAGE SURVIVAL RELATIVE TO MS, HCT15, n = 1: tested at 2 µg siRNA; settings: soft agar
Procedure: (§7) The Anchorage Independence/Soft Agar Assay allows assessment of the influence of modulation of gene expression on clonal tumouroid formation by observing and quantifying tumouroid morphology and colony number over an extended period of logarithmic growth thereby ascertaining any cell death is induced.
(§8) Cells are seeded into a 6-well plate and allowed to adhere overnight at 37° C. in a humidified atmosphere containing 5% CO2 in air. Cells are next transfected with siRNA Oligomers, at a concentration of 2 μg, against the genes of interest. Transfections continued for 4 hrs after which the transfection solution is removed and cells are refed with fresh medium and allowed incubate overnight. Transfected cells are next harvested for seeding into soft agar assay as described below. Cells are seeded at 5×10^4 cells per well of a 6 well plate and incubated over a 12/14-Day period whilst proliferating in a 0.05% Agar/Medium cell suspension at 37° C. in a humidified atmosphere containing 5% CO2 in air. Colonies formed are subsequently stained with Crystal Violet, their morphology is assessed and colonies formed are enumerated at a 4× magnification.
(§9) The cytotoxic effect of each gene is determined by a reduction in colony number compared to our MS control, but any influence on the morphology of the colony is also noted.
(§10) Examples of genes with a cytotoxic effect on knockdown as detected by the soft agar assay are outlined in Table 14. Table 14 gives the percentage survival of the indicated cell lines post transfection with siRNA oligomers to target genes relative to that of the missense in an anchorage independent assay. As an internal reference, the known survival gene Survivin was also targeted by siRNA. This table illustrates the magnitude of cytotoxicity induced by the knockdown of each target gene compared to the MS control i.e. the number of colonies formed are stained with Crystal violet and enumerated visually as discussed.

[7] = test system: A549 cells; test: 10-14 day Clonagenicity Assay (MTT), A549; format: cell-based, human; settings: independent experiment n = 3, dilution point of maximum toxicity
Excerpt: as §2, §3, §4, §5, §6

[8] = test system: A498 cells; test: 10-14 day Clonagenicity Assay (MTT), A498; format: cell-based, human; settings: independent experiment n = 3, dilution point of maximum toxicity
Excerpt: as §2, §3, §4, §5, §6

[9] = test system: HCT15 cells; test: 10-14 day Clonagenicity Assay (MTT), HCT15; format: cell-based, human; settings: independent experiment n = 1, dilution point of maximum toxicity
Excerpt: as §2, §3, §4, §5, §6

[10] = test system: cancer cell lines; test: Anchorage Independence/Soft Agar Assay, summary over the cell lines; format: cell-based, human; settings: 14-day anchorage independent assay, over the cell lines examined
Procedure: as §7, §8, §9
As an internal reference, the known survival gene ‘Survivin’ was also targeted by siRNA.

[11] = test system: SKOV3 cells; test: 10-14 day Clonagenicity Assay (MTT), SKOV3; format: cell-based, human; settings: independent experiment n = 1, dilution point of maximum toxicity
Excerpt: as §2, §3, §4, §5, §6

[12] = test system: MCF7 cells; test: Anchorage Independence/Soft Agar Assay, MCF7; format: cell-based, human; parameters: PERCENTAGE SURVIVAL RELATIVE TO MS, MCF7, n = 2: tested at 2 µg; settings: soft agar
Procedure: as §7, §8, §9, §10

[13] = test system: A549 cells; test: Anchorage Independence/Soft Agar Assay, A549; format: cell-based, human; parameters: PERCENTAGE SURVIVAL RELATIVE TO MS, A549, n = 2: tested at 2 µg; settings: soft agar
Procedure: as §7, §8, §9, §10

CCCCCCCCCCCCCCCCCCOC(=O)OC1C(O)C(O)C(CO)C(O)C1OC (centres unmarked) [1L-6-Hydroxymethyl-chiro-inositol 2-O-methyl-3-O-octadecylcarbonate]
apoptosis / GM-CSF mediated survival by sub G1 analysis [1]: survival is abrogated
apoptosis / GM-CSF mediated survival by sub G1 analysis ([1]; listed as IL-6-Hydroxymethyl-chiro-inositol 2-(R)-2-O-methyl-3-O-octadecylcarbonate): increases the amount of apoptosis

Cc1ccc(S(=O)(=O)N[C@@H](Cc2ccccc2)C(=O)CCl)cc1 [TPCK, n-alpha-tosyl-1-phenylalanyl chloromethyl ketone]
phosphorylation of PDK1 regulatory sites [2]: prevented phosphorylation of the PDK1 regulatory sites in S6K1 and Akt

COc1cc2ncnc(Nc3ccc(O)cc3)c2cc1OC [WHI-P131]
clonogenic growth [3]: inhibited the clonogenic growth
glioblastoma cell adhesion and migration [4]: potent inhibitors of glioblastoma cell adhesion and migration

siRNA c-Raf: control siRNA, sense UAGUUCAGCAGUUUGGCUAtt, antisense UAGCCAAACUGCUGAACUAtt (sense UAGUUCAGCAGUUUGGCUATT; antisense UAGCCAAACUGCUGAACUATT; chemistry not given here) [reference compound]
percentage survival relative to the missense, n = 2 [5]: 54.9%
PERCENTAGE SURVIVAL RELATIVE TO MS, HCT15, n = 1 ([6]; experiment n = 1): 70%
PERCENTAGE SURVIVAL RELATIVE TO MS, HCT15, n = 2 ([6]; experiment n = 2): 65.1%
percentage survival relative to the missense, n = 3 [7]: 59.1%
percentage survival relative to the missense, n = 3 [8]: 14.8%
percentage survival relative to the missense, n = 1 [9]: 83.5%
cell death / apoptosis in the soft agar assay [10]: only induced cell death in the A549 and HCT15 cell lines
percentage survival relative to the missense, n = 1 [11]: 42.5%
PERCENTAGE SURVIVAL RELATIVE TO MS, MCF7, n = 1 ([12]; experiment n = 1): 89.7%
PERCENTAGE SURVIVAL RELATIVE TO MS, MCF7, n = 2 ([12]; experiment n = 2): 98.2%
PERCENTAGE SURVIVAL RELATIVE TO MS, A549, n = 1 ([13]; experiment n = 1): 57%
PERCENTAGE SURVIVAL RELATIVE TO MS, A549, n = 2 ([13]; experiment n = 2): 24.2%
